Earlier results on one compound are cited in patent US12595109B2, “Device to release water and antimicrobial vapor into an enclosed or partially enclosed space” (Arkema Inc., priority 2020, dated 2026).

In series [1] the test system is Clostridium sporogenes (Spores).
The subject of series [2] is Geobacillus stearothermophilus. Particulars: biological indicator, 2 mg/L gaseous H2O2.
The test system of series [3] is Bacillus subtilis (Spores).
Where [4] appears, read: Liquid solution of H2O2, c(H2O2) = 370 mg l^−1, T = 24-25° C.
Where [5] appears, read: VPHP, c(H2O2) = 1-2 mg l^−1, T = 24-25° C.

Structures are written as SMILES. Read-outs that look alike come from different tables or passages of the source.

As for `OO` [hydrogen peroxide], the D-value was 0.8 min in series [1] (setting [4]); 0.5 to 1 min in series [1] (setting [5]); 0.8 min in series [2]; 2.0 to 7.3 min in series [3] (setting [4]); 0.5 to 1 min in series [3] (setting [5]); 1.5 min in the series with Bacillus (Spores) (setting [4]). Moreover, the D-value in the series with Bacillus (Spores) (setting [5]) is 1 to 2 min. For the setting “ACGIH, 5 times the TLV-TWA”, the maximum exposure entry was “no more than 5 ppm”. Further, for the setting “ACGIH, 8 hour TWA”, the TLV is listed as 1 ppm. In addition, the STEL (United Kingdom and some other countries) is given as 2 ppm. Further, the “Short Term Exposures (STELs)” value (Washington and Hawaii) was 3 ppm.
